Assay results: ChEMBL document CHEMBL1133226, “Combinatorial diversification of indinavir: in vivo mixture dosing of an HIV protease inhibitor library” (Bioorg Med Chem Lett, 2000)

Assays:
[1] = target: Human immunodeficiency virus type 1 protease (Human immunodeficiency virus 1, UniProt Q72874); experiment: In vitro inhibitory concentration to prevent cleavage of a substrate by the protease enzyme
[2] = system: MT4; experiment: Compound was tested in vitro for inhibition of spread of viral infection in MT-4 human T-lymphoid cells infected with the IIIb isolate; assay type: functional; details: read-out: CIC95

SMILES	IC50 [1]	IC95 [2]
CC(C)(C)NC(=O)[C@@H]1CN(Cc2ccc(Cl)c(Cl)c2)CCN1C[C@@H](O)C[C@@H](Cc1ccccc1)C(=O)N[C@H]1c2ccccc2C[C@H]1O	1.1 nM	200 nM
CC(C)(C)NC(=O)[C@@H]1CN(S(C)(=O)=O)CCN1C[C@@H](O)C[C@@H](Cc1ccccc1)C(=O)N[C@H]1c2ccccc2C[C@H]1O	1.6 nM	400 nM
CC(C)(C)NC(=O)[C@@H]1CN(Cc2cccnc2)CCN1C[C@@H](O)C[C@@H](Cc1ccccc1)C(=O)N[C@H]1c2ccccc2C[C@H]1O [INDINAVIR]	–	50.5 nM
